Measurements reported in paper PMC11845477, “Exploring the principles behind antibiotics with limited resistance” (Nature Communications, 2025).
Like-named read-outs stand apart in the source and are kept apart here.

Assays:
[1] = tested on: A. baumannii ATCC 17978 (SEN) and A. baumannii ATCC BAA-1605 (MDR); assay: Adaptive laboratory evolution (ALE), relative MIC of evolved lines; type: cell-based, Acinetobacter baumannii
Summary of the method: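 Ten parallel populations per antibiotic–ancestor pair were evolved in MHB at 37 °C, starting near 50% growth-inhibiting drug. Every 72 h they were passaged into 0.5–2.5× increasing concentrations, keeping the highest-drug well with OD600 > 0.2.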

[2] = tested on: K. pneumoniae ATCC 10031 (SEN) and K. pneumoniae ATCC 700603 (MDR); assay: Frequency-of-resistance (FoR) assay, relative MIC of mutants; type: cell-based, Klebsiella pneumoniae; conditions: for Relative MIC: Klebsiella pneumoniae ATCC 10031 (KP-SEN); for MIC: Klebsiella pneumoniae, read-out: MIC of evolved line, Klebsiella pneumoniae ATCC 10031 (KP-SEN)
Summary of the method: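 About 10^10 cells per strain were plated on MHB agar containing antibiotic at concentrations where the strain is susceptible, 48 h at 37 °C, in triplicate. Relative MIC = MICevolved/MICancestor.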

[3] = tested on: E. coli ATCC 25922 (SEN) and E. coli NCTC13846 (MDR); assay: as above; type: cell-based, Escherichia coli; conditions: for MIC: Escherichia coli
Protocol: The susceptibility of antibiotics to resistance development was evaluated in two strains of each bacterial species: a multidrug-resistant strain and an antibiotic-sensitive strain of Escherichia coli, Klebsiella pneumoniae, Acinetobacter baumannii, and Pseudomonas aeruginosa. To explore first-step resistance, we previously used a standard protocol for spontaneous frequency-of-resistance analysis (FoR assay) at multiple concentrations of each antibiotic[10],[28],[31]–[33]. […] For all other combinations, approximately 10^10 bacterial cells were exposed to one of each antibiotic on agar plates for two days at concentrations where the given strain is susceptible. We examined resistance levels by contrasting the minimum inhibitory concentration (MICs) of the mutated strains to the original wild-type bacterial strain (i.e., relative MIC).
To estimate the frequency of spontaneous mutations that confer resistance in a microbial population, we conducted a frequency of resistance (FoR) assay following established protocols[10],[31]–[33]. […] Prior to plating, bacteria were grown overnight in MHB medium at 37 °C and 250 RPM, then centrifuged and washed in MHB. All experiments were performed in triplicate, and plates were incubated at 37 °C for 48 hours. Total colony-forming units (CFUs) were determined by plating appropriate dilutions onto antibiotic-free MHB agar. Resistance frequencies were calculated by dividing the number of resistant colonies by the initial viable cell count. From the plates with the highest antibiotic concentration, ten colonies were selected for MIC determination and whole-genome sequencing.
A robotic liquid handling system was used to automatically prepare a 11 to 16-step serial dilution in 384-well microtiter plates (Greiner). A final concentration of 5 × 10^5 bacterial cells per mL were inoculated into each well containing 60 µL MHB medium. Bacterial cultures were incubated at 37 °C with continuous shaking (Infors shaker, 900 rpm with 3 mm throw) for 18 hours (2 replicates from each). Cell growth was monitored by measuring the optical density (OD600 values, using Biotek Synergy microplate reader). MIC was defined as the antibiotic concentration of complete growth inhibition (i.e., OD600 < 0.05). Relative MIC was calculated as follows:1 relativeMIC=MICevolved/MICancestor […]
Supplementary Figure 3. Resistance levels following the frequency of resistance assay across bacterial strains. The level of resistance was measured as the fold change in relative MIC between evolved and ancestral strains. Data are grouped by bacterial strain (A. baumannii (AB), E. coli (EC), K. pneumoniae (KP), and P. aeruginosa (PA)) and categorized as either multidrug-resistant (MDR) or sensitive (SEN). Each data point represents a laboratory evolved line, and boxplots show the median, first and third quartiles, with whiskers indicating the 5th and 95th percentiles. […]
analysis was performed using two-sided Dunn’s post-hoc test with Benjamini-Hochberg correction for multiple comparisons (**/ * indicates p < 0.01/ 0.05). For detailed information on antibiotic and bacterial species, see Supplementary Table 1. For mode of action groups, refer to Table 1. Source data are provided as a Source Data file.

[4] = AB-SEN (Acinetobacter baumannii ATCC 17978), evolved line 4 adapted to the named antibiotic
[5] = AB-SEN (Acinetobacter baumannii ATCC 17978), evolved line 7 adapted to the named antibiotic
[6] = AB-SEN, Acinetobacter baumannii ATCC 17978, evolved line 2 versus ancestor
[7] = AB-SEN, Acinetobacter baumannii ATCC 17978, evolved line 3 versus ancestor
[8] = AB-SEN, Acinetobacter baumannii ATCC 17978, evolved line 4 versus ancestor
[9] = AB-SEN, Acinetobacter baumannii ATCC 17978, evolved line 6 versus ancestor
[10] = AB-SEN, Acinetobacter baumannii ATCC 17978, evolved line 7 versus ancestor
[11] = AB-SEN, Acinetobacter baumannii ATCC 17978, evolved line 8 versus ancestor
[12] = AB-SEN, Acinetobacter baumannii ATCC 17978, evolved line 9 versus ancestor
[13] = AB-SEN, Acinetobacter baumannii ATCC 17978, evolved line 10 versus ancestor
[14] = E. coli NCTC 13846 (EC-MDR), evolved line 1, evolved vs ancestor
[15] = E. coli NCTC 13846 (EC-MDR), evolved line 2, evolved vs ancestor
[16] = E. coli NCTC 13846 (EC-MDR), evolved line 3, evolved vs ancestor
[17] = Escherichia coli ATCC 25922 (EC-SEN), evolved line 1 versus ancestor
[18] = Escherichia coli ATCC 25922 (EC-SEN), evolved line 2 versus ancestor
[19] = Escherichia coli ATCC 25922 (EC-SEN), evolved line 3 versus ancestor
[20] = read-out: MIC of evolved line, Escherichia coli ATCC 25922 (EC-SEN), evolved line 1
[21] = read-out: MIC of evolved line, Escherichia coli ATCC 25922 (EC-SEN), evolved line 2
[22] = read-out: MIC of evolved line, Escherichia coli ATCC 25922 (EC-SEN), evolved line 3
[23] = AB-SEN (Acinetobacter baumannii ATCC 17978), evolved line 1
[24] = AB-SEN (Acinetobacter baumannii ATCC 17978), evolved line 1 adapted to the named antibiotic
[25] = AB-SEN (Acinetobacter baumannii ATCC 17978), evolved line 2
[26] = AB-SEN (Acinetobacter baumannii ATCC 17978), evolved line 3
[27] = AB-SEN (Acinetobacter baumannii ATCC 17978), evolved line 4
[28] = AB-SEN (Acinetobacter baumannii ATCC 17978), evolved line 6
[29] = AB-SEN (Acinetobacter baumannii ATCC 17978), evolved line 8
[30] = AB-SEN (Acinetobacter baumannii ATCC 17978), evolved line 8 adapted to the named antibiotic
[31] = AB-SEN (Acinetobacter baumannii ATCC 17978), evolved line 9
[32] = AB-SEN (Acinetobacter baumannii ATCC 17978), evolved line 10
[33] = AB-SEN, Acinetobacter baumannii ATCC 17978, evolved line 7

Compound: CNC(C)C1CCC(N)C(OC2C(N)CC(N)C(OC3OCC(C)(O)C(NC)C3O)C2O)O1 (centres unmarked) [Gentamicin]
- Relative MIC (log10) ([1]; AB-SEN (Acinetobacter baumannii ATCC 17978), evolved line 2 adapted to the named antibiotic): 2.709
- Relative MIC (log10) [1, 4]: 2.709
- Relative MIC (log10) ([1]; AB-SEN (Acinetobacter baumannii ATCC 17978), evolved line 5 adapted to the named antibiotic): 2.709
- Relative MIC (log10) [1, 5]: 2.709
- Relative MIC (log10) ([1]; AB-SEN (Acinetobacter baumannii ATCC 17978), evolved line 10 adapted to the named antibiotic): 2.709
- Relative MIC [1, 6]: 512
- Relative MIC [1, 7]: 256
- Relative MIC [1, 8]: 512
- Relative MIC ([1]; AB-SEN, Acinetobacter baumannii ATCC 17978, evolved line 5 versus ancestor): 512
- Relative MIC [1, 9]: 256
- Relative MIC [1, 10]: 512
- Relative MIC [1, 11]: 128
- Relative MIC [1, 12]: 128
- Relative MIC [1, 13]: 512
- Relative MIC ([1]; Acinetobacter baumannii ATCC 17978 (AB-SEN), evolved line 2): 512
- Relative MIC ([1]; Acinetobacter baumannii ATCC 17978 (AB-SEN), evolved line 3): 256
- Relative MIC ([1]; Acinetobacter baumannii ATCC 17978 (AB-SEN), evolved line 4): 512
- Relative MIC ([1]; Acinetobacter baumannii ATCC 17978 (AB-SEN), evolved line 5): 512
- Relative MIC ([1]; Acinetobacter baumannii ATCC 17978 (AB-SEN), evolved line 6): 256
- Relative MIC ([1]; Acinetobacter baumannii ATCC 17978 (AB-SEN), evolved line 7): 512
- Relative MIC ([1]; Acinetobacter baumannii ATCC 17978 (AB-SEN), evolved line 8): 128
- Relative MIC ([1]; Acinetobacter baumannii ATCC 17978 (AB-SEN), evolved line 9): 128
- Relative MIC ([1]; Acinetobacter baumannii ATCC 17978 (AB-SEN), evolved line 10): 512
- Relative MIC ([2]; evolved line 1 versus ancestor): 2
- Relative MIC ([2]; evolved line 2 versus ancestor): 2
- Relative MIC ([2]; evolved line 3 versus ancestor): 32
- MIC ([2]; evolved line 1): 0.5 µg/mL
- MIC ([2]; evolved line 2): 0.5 µg/mL
- MIC ([2]; evolved line 3): 8 µg/mL
- Relative MIC [3, 14]: 8
- Relative MIC [3, 15]: 4
- Relative MIC [3, 16]: 4
- Relative MIC [3, 17]: 16
- Relative MIC [3, 18]: 16
- Relative MIC [3, 19]: 8
- MIC ([3]; read-out: MIC of evolved line, E. coli NCTC 13846 (EC-MDR), evolved line 1): 8 µg/mL
- MIC ([3]; read-out: MIC of evolved line, E. coli NCTC 13846 (EC-MDR), evolved line 2): 4 µg/mL
- MIC ([3]; read-out: MIC of evolved line, E. coli NCTC 13846 (EC-MDR), evolved line 3): 4 µg/mL
- MIC [3, 20]: 16 µg/mL
- MIC [3, 21]: 16 µg/mL
- MIC [3, 22]: 8 µg/mL

Compound: O=c1ccc2ncc(=O)n3c2n1C[C@H]3CN1CCC(NCc2cc3c(cn2)OCCC3)CC1 [Gepotidacin]
- Relative MIC [1, 23]: 64
- Relative MIC (log10) [1, 24]: 1.806
- Relative MIC [1, 25]: 128
- Relative MIC [1, 26]: 128
- Relative MIC [1, 27]: 64
- Relative MIC (log10) [1, 4]: 1.806
- Relative MIC [1, 28]: 128
- Relative MIC (log10) [1, 5]: 1.806
- Relative MIC [1, 29]: 64
- Relative MIC (log10) [1, 30]: 1.806
- Relative MIC [1, 31]: 64
- Relative MIC (log10) ([1]; AB-SEN (Acinetobacter baumannii ATCC 17978), evolved line 9 adapted to the named antibiotic): 1.806
- Relative MIC [1, 32]: 64
- Relative MIC ([1]; AB-SEN, Acinetobacter baumannii ATCC 17978, evolved line 1 versus ancestor): 64
- Relative MIC [1, 6]: 128
- Relative MIC [1, 7]: 128
- Relative MIC [1, 8]: 64
- Relative MIC [1, 9]: 128
- Relative MIC [1, 10]: 64
- Relative MIC [1, 11]: 64
- Relative MIC [1, 12]: 64
- Relative MIC [1, 13]: 64
- Relative MIC [1, 33]: 64
- Relative MIC ([2]; evolved line 1 versus ancestor): 1
- Relative MIC ([2]; evolved line 2 versus ancestor): 1
- Relative MIC ([2]; evolved line 3 versus ancestor): 1
- MIC ([2]; evolved line 1): 0.0625 µg/mL
- MIC ([2]; evolved line 2): 0.0625 µg/mL
- MIC ([2]; evolved line 3): 0.0625 µg/mL
- Relative MIC [3, 14]: 1
- Relative MIC [3, 15]: 1
- Relative MIC [3, 16]: 1
- Relative MIC [3, 17]: 1
- Relative MIC [3, 18]: 1
- Relative MIC [3, 19]: 1

Compound: CN(C)c1cc(CNCC(C)(C)C)c(O)c2c1C[C@H]1C[C@H]3[C@H](N(C)C)C(O)=C(C(N)=O)C(=O)[C@@]3(O)C(O)=C1C2=O [Omadacycline]
- Relative MIC [1, 23]: 32
- Relative MIC (log10) [1, 24]: 1.505
- Relative MIC [1, 25]: 64
- Relative MIC [1, 26]: 64
- Relative MIC (log10) ([1]; AB-SEN (Acinetobacter baumannii ATCC 17978), evolved line 3 adapted to the named antibiotic): 1.806
- Relative MIC [1, 27]: 32
- Relative MIC ([1]; AB-SEN (Acinetobacter baumannii ATCC 17978), evolved line 5): 128
- Relative MIC [1, 28]: 128
- Relative MIC (log10) ([1]; AB-SEN (Acinetobacter baumannii ATCC 17978), evolved line 6 adapted to the named antibiotic): 2.107
- Relative MIC (log10) [1, 5]: 1.806
- Relative MIC [1, 29]: 64
- Relative MIC (log10) [1, 30]: 1.806
- Relative MIC [1, 31]: 32
- Relative MIC [1, 32]: 32
- Relative MIC ([1]; AB-SEN ATCC 17978, evolved line 1, evolved line vs ancestor): 32
- Relative MIC ([1]; AB-SEN ATCC 17978, evolved line 2, evolved line vs ancestor): 64
- Relative MIC ([1]; AB-SEN ATCC 17978, evolved line 3, evolved line vs ancestor): 64
- Relative MIC ([1]; AB-SEN ATCC 17978, evolved line 4, evolved line vs ancestor): 32
- Relative MIC ([1]; AB-SEN ATCC 17978, evolved line 5, evolved line vs ancestor): 128
- Relative MIC ([1]; AB-SEN ATCC 17978, evolved line 6, evolved line vs ancestor): 128
- Relative MIC ([1]; AB-SEN ATCC 17978, evolved line 7, evolved line vs ancestor): 64
- Relative MIC ([1]; AB-SEN ATCC 17978, evolved line 8, evolved line vs ancestor): 64
- Relative MIC ([1]; AB-SEN ATCC 17978, evolved line 9, evolved line vs ancestor): 32
- Relative MIC ([1]; AB-SEN ATCC 17978, evolved line 10, evolved line vs ancestor): 32
- Relative MIC [1, 33]: 64
- Relative MIC ([2]; evolved line 1 versus ancestor): 32
- Relative MIC ([2]; evolved line 2 versus ancestor): 16
- Relative MIC ([2]; evolved line 3 versus ancestor): 16
- MIC ([2]; evolved line 1): 32 µg/mL
- MIC ([2]; evolved line 2): 16 µg/mL
- MIC ([2]; evolved line 3): 16 µg/mL
- Relative MIC [3, 17]: 2
- Relative MIC [3, 18]: 2
- Relative MIC [3, 19]: 2
- MIC [3, 20]: 4 µg/mL
- MIC [3, 21]: 4 µg/mL
- MIC [3, 22]: 4 µg/mL
